According to patent US9422318B2, “Epoxyeicosatrienoic acid analogs and methods of making and using the same” (THE MEDICAL COLLEGE OF WISCONSIN, INC., priority 2011, dated 2016):
“Also recorded” adds a separate entry of the source.

Legend:
[1] = system: cisplatin-induced nephrotoxicity in Wistar-Kyoto (WKY) rats; test: Cisplatin-induced nephrotoxicity in rats; assay type: in vivo, rat
Excerpt: Experiments were approved and carried out according to the guidelines of the Institutional Animal Care and Use Committee, Medical College of Wisconsin, Milwaukee, USA. Male Wistar-Kyoto (WKY) rats weighing 180-200 g (Charles River, Mass., USA). All animals were kept in a temperature-controlled environment with a 12-h light/dark cycle and were allowed free access to food and water at all times. An acclimatization period of 6 days was allowed for the rats before experimentation. The rats were assigned into four groups. […] Rats received drinking water ad libitum for seven days and on day 7 DMSO (Sigma Aldrich, St. Louis, Mo., USA) was administered (300-500 μl i.p.). […] These rats are pretreated with the EET analog […].) for seven days in drinking water and then on day 7 administered CP as a single injection (7 mg/kg i.p.) followed by another five days treatment with EET-A. […] One day before the rats were sacrificed, urine of each rat was collected over a 24-h period, and the volume was measured. Five days after CP or DMSO administration, rats were anesthetized for blood sample collection followed by euthanasia and tissue collection. Urine and plasma samples were kept frozen at -80° C. until analyzed. The kidneys were removed, washed with physiological saline and stored at -80° C. until used for RT-PCR analysis, thiobarbituric acid reactive substance (TBARS) measurement and caspase 3 activity assay. […] The levels of blood urea nitrogen (BUN) (BioAssay Systems, Hayward, Calif., USA) and serum creatinine (Cayman Chemical Company, Ann Arbor, Mich., USA) were measured spectrophotometrically using commercial kits. Urinary content of creatinine and protein were measured using commercial kits (Cayman Chemical Company, Ann Arbor, Mich., USA), and the activity of urinary N-acetyl-b-glucosaminidase (NAG) in the urine was measured by a kit from Diazyme (Diazyme Laboratories, Poway, Calif., USA). While urine content of kidney injury molecule-1 (KIM-1) was measured using ELISA (R&D Systems, Inc. Minneapolis, Minn., USA). Malondialdehyde (MDA) is a thiobarbituric acid reactive substance (TBARS) that is formed as an end-product of lipid peroxidation and serves as an important index of oxidative stress. […] Using a commercially available kit (Cayman Chemical Company, Ann Arbor, Mich., USA), MDA was measured spectrophotometrically after reaction with thiobarbituric acid. […] Louis, Mo., USA). Kidney homogenate was prepared with a lysis Buffer (50 mM HEPES, pH 7.4, with 5 mM CHAPS and 5 mM DTT). […] The caspase 3 activity is expressed as nmol of AMC/min/μL. Real-Time analysis was carried out to assess the expression of oxidative (gp91phox, NOX1, SOD1, SOD2, SOD3), inflammatory (TNF-α, IL-6, apoptotic (Bax, Bak, Bcl-2) and endoplasmic reticulum stress (GRP78, caspase 12) related genes in the kidney. Total RNA was isolated from kidney homogenate using TRIzol LS reagents (Invitrogen Life Technologies, Carlsbad, Calif., USA) according to the manufacturer's instructions. The isolated RNA was treated with RNase-free DNase (Invitrogen, Carlsbad, Calif., USA) to remove traces of genomic DNA contamination. The mRNA samples were quantified by spectrophotometry at 260 nm and 1 μg of total RNA was reverse-transcribed to cDNA using iScriptTM Select cDNA Synthesis Kit (Bio-Rad, Hercules, Calif., USA). The target gene expression was quantified by iScript One-Step RT-PCR Kit with SYBR green using MyiQTM Single Color Real-Time PCR Detection System (Bio-Rad Laboratories, Hercules, Calif., USA). Each amplified sample in all wells was analyzed for homogeneity using dissociation curve analysis using iQ5 Optical System Software, Version 2.1 (Bio-Rad Laboratories, Hercules, Calif., USA). […] In analyzing the relative expression of the target genes, the Ct values were normalized to a housekeeping gene (pgk1). Statistical analyses were carried out for at least 5-7 experimental samples in each experimental group. Primers used in this study were designed based on several earlier reports. […]

NCCIT cells = test: Cell viability by alamar blue assay, cisplatin with concurrent EET-A; assay type: cell-based, human; conditions: concurrent application of EET-A and cisplatin; NCCIT cancer cell line
Protocol: (§1) In this study, HEK293, U87MG, Hela cell-lines were obtained from the ATCC (Manassas, Va., USA) (HEK293, U87MG, Hela), and NCCIT was collected from Department of Pediatrics, UT Southwestern Medical Center at Dallas, Tex., USA. All cell lines were maintained in DMEM or RPIM with 10% fetal bovine serum and penicillin/streptomycin purchased from Life Technologies (Grand Island, N.Y., USA). Cisplatin was purchased from either Sigma (St. Louis, Mo., USA) or CalBiochem/EMD Biosciences (Billerica, Mass., USA). Cells were seeded in 96-well plates at 500 to 4,000 cells per well depends on cell type. […] Cell viability was measured by alamar blue assay using resazurin (Sigma Aldrich) according to the manufacturer's guidelines. Viability results were measured by fluorescence/absorbance in a 96-well plate reader from BMG Labtech (Cary, N.C., USA) and the IC50 was calculated by GraphPad Prism5 software (GraphPad Software Inc, La Jolla, Calif., USA).

[2] = system: Hela, NCCIT and U87 cancer cell lines; test: Cell viability by alamar blue assay in cancer cell lines; assay type: cell-based, human; conditions: 72 h
Protocol: as §1

For “Disodium (S)-2-(13-(3-pentylureido)tridec-8(Z)-enamido)succinate [EET-A]”, the BUN ([1]; 10 mg/kg/d p.o., cisplatin 7 mg/kg i.p., day 5 after cisplatin, vehicle 241±51) was 108 ± 30 mg/dL, the “plasma creatinine (PCr)” value ([1]; 10 mg/kg/d p.o., day 5 after cisplatin, vehicle 3.1±0.2) was 2.0 ± 0.2 mg/dL and the “kidney TBARS formation” value ([1]; 10 mg/kg/d p.o., vehicle 16±2) was 7 ± 1 µmol/g. The “reductions in renal mRNA expressions of inflammatory markers (TNF-α, IL-6, interleukin-1β)” value ([1]; cisplatin-administered rats) was 40-60%, the proteinuria ([1]; cisplatin-administered rats, vehicle 53±5) was 33 ± 8 mg/day and the “reductions in the elevated levels of serum creatinine and BUN” value ([1]; five days after cisplatin, vs. vehicle) was 30-50%. For the same substance, the NAG ([1]; urinary, 10 mg/kg/d p.o., vehicle 3.0±0.6) was 0.5±0.1 U/d, the KIM-1 ([1]; urinary, 10 mg/kg/d p.o., vehicle 296±94) was 85 ± 29 ng/day and the “reduction in urinary excretion of NAG and KIM-1” value ([1]; vs. cisplatin rats treated with vehicle) was 30-50%. The “reduction of cisplatin-induced proteinuria” value ([1]; vs. vehicle) was ≥ 40%, the “reduction in elevated renal expressions of GRP78 and caspase 12 mRNAs” value ([1]; vs. vehicle treatment) was 2-4 fold and the “decrease in kidney expression of NOX1 and gp91phox mRNAs” value ([1]; vs. vehicle-treated cisplatin rats) was 2-3 folds. For the same substance, the “influence on cisplatin's chemotherapeutic effect” value (NCCIT cells) was “did not influence” and the “effect on cell number / growth” value [2] was “no observable effects; also recorded: no effect”.
